pIC50: −log10 of the molar value. The source made the active and inactive calls. No cut-off for these calls is given here.
Legend:
[1] = biological target: T1, Glycogen synthase kinase-3 beta (Homo sapiens, UniProt P49841); assay: biochemical
Description: Inhibition of recombinant N-terminal His6-tagged human GSK3beta H350L mutant expressed in baculovirus infected Sf21 insect cells using polypeptide GS-2 as substrate after 30 mins in presence of ATP by kinase-glo luminescence assay

cells = conditions: Homo sapiens, OVCA433, 48 h
Description: Antiproliferative activity against human OVCA433 cells measured after 48 hrs by MTT assay

A2780 = assay: Antiproliferative activity against human A2780 cells measured after 48 hrs by MTT assay; assay type: functional, cell-based; conditions: A2780, 48 h
[2] = biological target: Receptor tyrosine-protein kinase erbB-4 (Homo sapiens) (UniProt Q15303); assay: Inhibition of ErbB4 (unknown origin) using poly (Glu, Tyr) 4:1 as substrate after 1 hr by ELISA relative to control; conditions: concentration not given here
[3] = tested on: Glycogen synthase kinase-3 beta (Homo sapiens), P49841 [UNDEFINED MUTATION]; assay: Non-competitive inhibition of recombinant N-terminal His6-tagged human GSK3beta H350L mutant expressed in baculovirus infected Sf21 insect cells at 20 to 50 uM in presence of constant levels of ATP and varying GS-2 substrate concentration after 30 mins by double reciprocal plot analysis
[4] = tested on: Glycogen synthase kinase-3 beta (Homo sapiens), P49841 [UNDEFINED MUTATION]; assay: Non-competitive inhibition of recombinant N-terminal His6-tagged human GSK3beta H350L mutant expressed in baculovirus infected Sf21 insect cells at 20 to 50 uM in presence of varying levels of ATP and constant GS-2 substrate concentration after 30 mins by double reciprocal plot analysis
[5] = biological target: T1, Glycogen synthase kinase-3 beta
Description: Inhibition of GSK3beta (unknown origin)

[6] = tested on: Glycogen synthase kinase-3 beta (Homo sapiens), P49841 [UNDEFINED MUTATION]; assay: Non-competitive inhibition of recombinant N-terminal His6-tagged human GSK3beta H350L mutant expressed in baculovirus infected Sf21 insect cells at 6.25 to 12.5 uM in presence of constant levels of ATP and varying GS-2 substrate concentration after 30 mins by double reciprocal plot analysis
[7] = tested on: Glycogen synthase kinase-3 beta (Homo sapiens), P49841 [UNDEFINED MUTATION]; assay: Non-competitive inhibition of recombinant N-terminal His6-tagged human GSK3beta H350L mutant expressed in baculovirus infected Sf21 insect cells at 6.25 to 12.5 uM in presence of varying levels of ATP and constant GS-2 substrate concentration after 30 mins by double reciprocal plot analysis

T1 sequence (P49841 whole entry): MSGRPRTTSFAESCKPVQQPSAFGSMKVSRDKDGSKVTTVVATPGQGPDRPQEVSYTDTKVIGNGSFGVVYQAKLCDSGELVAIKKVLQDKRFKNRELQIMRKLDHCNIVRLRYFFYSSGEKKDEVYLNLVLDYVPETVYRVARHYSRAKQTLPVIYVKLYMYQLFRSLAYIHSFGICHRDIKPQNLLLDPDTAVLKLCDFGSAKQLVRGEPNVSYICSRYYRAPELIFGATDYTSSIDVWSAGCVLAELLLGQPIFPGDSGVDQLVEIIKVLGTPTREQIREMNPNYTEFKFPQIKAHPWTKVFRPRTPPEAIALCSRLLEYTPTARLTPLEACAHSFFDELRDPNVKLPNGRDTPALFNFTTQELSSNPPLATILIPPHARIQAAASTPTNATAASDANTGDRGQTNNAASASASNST
Glycogen synthase kinase-3 beta (Homo sapiens), P49841 [UNDEFINED MUTATION], sequence (P49841 whole entry, looked up, stated change not applied): as the sequence (P49841 whole entry) above
Receptor tyrosine-protein kinase erbB-4 (Homo sapiens), sequence (Q15303 whole entry): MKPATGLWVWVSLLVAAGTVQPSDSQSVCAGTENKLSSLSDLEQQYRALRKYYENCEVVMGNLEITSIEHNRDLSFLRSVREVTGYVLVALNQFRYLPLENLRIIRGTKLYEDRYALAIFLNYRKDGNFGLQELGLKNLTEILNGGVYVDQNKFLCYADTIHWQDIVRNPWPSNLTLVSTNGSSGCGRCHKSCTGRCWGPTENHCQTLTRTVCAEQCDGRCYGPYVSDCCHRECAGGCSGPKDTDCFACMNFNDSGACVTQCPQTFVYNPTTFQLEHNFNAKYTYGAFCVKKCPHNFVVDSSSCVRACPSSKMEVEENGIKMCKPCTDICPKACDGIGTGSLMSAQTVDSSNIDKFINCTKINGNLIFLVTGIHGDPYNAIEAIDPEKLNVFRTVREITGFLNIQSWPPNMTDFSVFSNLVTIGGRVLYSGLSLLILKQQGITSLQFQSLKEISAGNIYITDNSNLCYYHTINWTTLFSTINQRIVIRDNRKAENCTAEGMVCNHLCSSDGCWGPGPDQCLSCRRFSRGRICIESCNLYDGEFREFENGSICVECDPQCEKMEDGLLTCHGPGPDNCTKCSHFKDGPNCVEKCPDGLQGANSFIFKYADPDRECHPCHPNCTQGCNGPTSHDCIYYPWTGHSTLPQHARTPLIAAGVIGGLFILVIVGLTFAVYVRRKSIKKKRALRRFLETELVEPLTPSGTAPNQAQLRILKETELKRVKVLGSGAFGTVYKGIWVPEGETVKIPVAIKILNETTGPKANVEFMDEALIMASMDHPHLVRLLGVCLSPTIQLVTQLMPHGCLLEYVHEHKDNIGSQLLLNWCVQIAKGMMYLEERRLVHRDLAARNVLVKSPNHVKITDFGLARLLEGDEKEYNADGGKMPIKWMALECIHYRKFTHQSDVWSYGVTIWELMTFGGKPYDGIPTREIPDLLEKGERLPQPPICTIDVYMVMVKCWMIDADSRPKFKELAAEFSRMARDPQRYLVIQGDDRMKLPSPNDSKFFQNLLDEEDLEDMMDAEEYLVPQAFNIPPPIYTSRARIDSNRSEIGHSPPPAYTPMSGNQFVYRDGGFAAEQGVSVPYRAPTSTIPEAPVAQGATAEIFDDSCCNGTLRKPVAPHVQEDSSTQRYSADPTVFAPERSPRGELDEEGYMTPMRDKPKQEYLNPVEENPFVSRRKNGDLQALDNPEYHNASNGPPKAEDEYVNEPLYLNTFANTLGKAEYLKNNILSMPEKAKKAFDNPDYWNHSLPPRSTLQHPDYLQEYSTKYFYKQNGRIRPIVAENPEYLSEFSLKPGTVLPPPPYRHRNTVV

SMILES	pIC50 [1]	pIC50 (cells)	pIC50 (A2780)	other results
CCCCCCCCCC(=O)NC1CCN(C(=O)C2Sc3ccccc3N(CC)C2=O)CC1 (configuration not stated)	4.17	4.11	4.57	
CCCCCCCCCCC(=O)N1CCN(C(=O)C2Sc3ccccc3N(CC)C2=O)CC1 (configuration not stated)	4.57	4.64	4.66	
CCCCCCCCC(=O)NC1CCN(C(=O)C2Sc3ccccc3N(CC)C2=O)CC1 (configuration not stated)	< 4.00	< 4.00	4.48	
CCCCCCCCCC(=O)N1CCN(C(=O)C2Sc3ccccc3N(CC)C2=O)CC1 (configuration not stated)	4.29	4.05	4.44	
CCCCCCCCCCCC(=O)NC1CCN(C(=O)C2Sc3ccccc3N(CC)C2=O)CC1 (configuration not stated)	4.48	4.55	4.89	
CCCCCCCCCCCCCCCCC(=O)NC1CCN(C(=O)C2Sc3ccccc3N(CC)C2=O)CC1 (configuration not stated)	4.33	< 4.00	5.33	
CN(C)C/C=C/C(=O)Nc1cc2c(Nc3ccc(F)c(Cl)c3)ncnc2cc1O[C@H]1CCOC1				inhibition [2]: 98.2%
CCCCCCCCCCC(=O)N1CCC(NC(=O)C2Sc3ccccc3N(CC)C2=O)CC1 (configuration not stated)	4.35	4.55	4.78	
Cn1sc(=O)n(Cc2ccccc2)c1=O		4.82	4.70	
CCCCCCCCCCCCCCCC(=O)NC1CCN(C(=O)C2Sc3ccccc3N(CC)C2=O)CC1 (configuration not stated)	4.93	4.16	5.46	inhibition [3]: Active; inhibition [4]: Active
CCCCCCCCCCCCCC(=O)N1CCN(C(=O)C2Sc3ccccc3N(CC)C2=O)CC1 (configuration not stated)	4.72	4.77	4.78	
CCCCCCCCCCCCCCCC(=O)N1CCC(NC(=O)C2Sc3ccccc3N(CC)C2=O)CC1 (configuration not stated)	4.73	4.52	4.94	
CCCCCCCCCCCCCC(=O)NC1CCN(C(=O)C2Sc3ccccc3N(CC)C2=O)CC1 (configuration not stated)	4.48	4.58	5.04	
CCCCCCCCCCCC(=O)N1CCC(NC(=O)C2Sc3ccccc3N(CC)C2=O)CC1 (configuration not stated)	4.53	4.57	4.78	
CCCCCCCCCCCCCCC(=O)N1CCC(NC(=O)C2Sc3ccccc3N(CC)C2=O)CC1 (configuration not stated)	4.75	4.76	5.05	
CCCCCCCCCCCCCC(=O)N1CCC(NC(=O)C2Sc3ccccc3N(CC)C2=O)CC1 (configuration not stated)	4.56	4.83	4.88	
O=C1Cc2cc(Br)ccc2/C1=c1/[nH]c2ccccc2/c1=C\O				pIC50 [5]: 8.30
CCCCCCCCCCCC(=O)NNC(=O)C1Sc2ccccc2N(CC)C1=O (configuration not stated)	4.92	< 4.00	4.39	
CCCCCCCCCCCC(=O)N1CCN(C(=O)C2Sc3ccccc3N(CC)C2=O)CC1 (configuration not stated)	4.63	4.71	4.78	
CCCCCCCCCC(=O)N1CCC(NC(=O)C2Sc3ccccc3N(CC)C2=O)CC1 (configuration not stated)	4.13	4.32	4.63	
CCCCCCCCCCC(=O)NC1CCN(C(=O)C2Sc3ccccc3N(CC)C2=O)CC1 (configuration not stated)	4.34	4.46	4.63	
CCN1C(=O)C(C(=O)N2CCC(NC(=O)CCCCCc3ccccc3)CC2)Sc2ccccc21 (configuration not stated)	< 4.00	< 4.00	4.44	
CCCCCCCCCCCCNC(=O)C1Sc2ccccc2N(CC)C1=O (configuration not stated)	4.64	< 4.00	4.81	
CCCCCCCCCCCCCCCC(=O)N1CCN(C(=O)C2Sc3ccccc3N(CC)C2=O)CC1 (configuration not stated)	5.06	4.81	4.88	inhibition [6]: Active; inhibition [7]: Active
CCCCCCCCC(=O)N1CCN(C(=O)C2Sc3ccccc3N(CC)C2=O)CC1 (configuration not stated)	< 4.00	4.09	4.47	
CCCCCCCCC(=O)N1CCC(NC(=O)C2Sc3ccccc3N(CC)C2=O)CC1 (configuration not stated)	< 4.00	4.04	4.61	
